Starred links: 1 amine or outer side, 2 acyl side, 3 side chain; linkers in the order of their positions; H or OH if unused. Positions of bridges follow the written chain, without caps; N, C: chain ends. Residues, ends and D or L forms follow the SMILES beside them. *: point of attachment. C20 diacid = O=C(O)CCCCCCCCCCCCCCCCCCC(=O)*; γGlu = O=C(O)[C@H](CCC(=O)[*:2])N[*:1]
Test: Assay (I) efficacy testing on appetite (food intake), ad libitum fed rat model
Format: in vivo, Sprague Dawley (SD) rats
Excerpt: Sprague Dawley (SD) rats from Taconic Europe, Denmark are used for the experiments. The rats have a body weight 200-250 g at the start of experiment. The rats arrive at least 10-14 days before start of experiment to allow acclimatization to experimental settings. During this period the animals are handled at least 2 times. After arrival rats are housed individually for one week in a reversed light/dark phase (meaning that lights are off during daytime and on during nighttime) […]. Since rats are normally active and eat their major part of their daily food intake during the dark period, rats are dosed in the morning right before lights are turned off. This set-up results in the lowest data variation and highst test sensitivity. The experiment is conducted in the rats' home cages and rats have free access to food and water througout the acclimatization period and the experiment period. Each dose of derivative is tested in a group of 5-8 rats. A vehicle group of 6-8 rats is included in each set of testing. Rats are dosed once according to body weight with a 0.01-3 mg/kg solution administered intraperitoneally (ip), orally (po) or subcutaneously (sc). The time of dosing is recorded for each group. After dosing, the rats are returned to their home cages, where they then have access to food and water. The food consumption is recorded individually continuously by on-line registration or manually every hour for 7 hours, and then after 24 h and sometimes 48 h. At the end of the experimental session, the animals are euthanised.
The individual data are recorded in Microsoft excel sheets. Outliers are excluded after applying the Grubbs statistical evaluation test for outliers, and the result is presented graphically using the GraphPad Prism program.

Row | Compound | Food intake reduction 0-24 h 30 nmol/kg (%) | Food intake reduction 24-48 h 30 nmol/kg (%) | Food intake reduction 0-24 h 3 nmol/kg (%) | Food intake reduction 24-48 h 3 nmol/kg (%)
1 | CC[C@H](C)[C@H](NC(=O)[C@@H]1CCCN1C(=O)CNC(=O)[C@H](Cc1ccccc1)NC(=O)[C@H](CC(N)=O)NC(=O)[C@H](CC(N)=O)NC(=O)[C@H](CO)NC(=O)[C@H](CO)NC(=O)[C@H](Cc1c[nH]cn1)NC(=O)[C@H](CCCNC(=N)N)NC(=O)[C@H](CC(C)C)NC(=O)[C@H](Cc1ccccc1)NC(=O)[C@H](CCC(=O)O)NC(=O)[C@H](C)NC(=O)[C@H](CC(C)C)NC(=O)[C@H](CCCNC(=N)N)NC(=O)[C@H](CCC(N)=O)NC(=O)[C@@H](NC(=O)[C@H](C)NC(=O)[C@@H]1CSSC[C@H](NC(=O)[C@H](Cc2c[nH]cn2)NC(=O)[C@H](Cc2c[nH]cn2)NC(=O)[C@H](Cc2c[nH]cn2)NC(=O)CC[C@H](NC(=O)CCCCCCCCCCCCCCCCCCC(=O)O)C(=O)O)C(=O)N[C@@H](CC(N)=O)C(=O)N[C@@H]([C@@H](C)O)C(=O)N[C@@H](C)C(=O)N[C@@H]([C@@H](C)O)C(=O)N1)[C@@H](C)O)C(=O)N[C@@H](CC(C)C)C(=O)N1CCC[C@H]1C(=O)N1CCC[C@H]1C(=O)N[C@H](C(=O)N[C@@H](CC(N)=O)C(=O)N[C@H](C(=O)NCC(=O)N[C@@H](CO)C(=O)N[C@@H](CC(N)=O)C(=O)N[C@H](C(=O)N[C@@H](Cc1ccc(O)cc1)C(N)=O)[C@@H](C)O)C(C)C)[C@@H](C)O [compound 12] ({C20 diacid-γGlu}-HHHCNTATCATQRLAEFLRHSSNNFGPILPPTNVGSNTY-NH2; disulfide 4-9) | 70 | 45 |  | 
2 | CC[C@H](C)[C@H](NC(=O)[C@@H]1CCCN1C(=O)CNC(=O)[C@H](Cc1ccccc1)NC(=O)[C@H](CC(N)=O)NC(=O)[C@H](CC(N)=O)NC(=O)[C@H](CO)NC(=O)[C@H](CO)NC(=O)[C@H](Cc1c[nH]cn1)NC(=O)[C@H](Cc1c[nH]cn1)NC(=O)[C@H](CC(C)C)NC(=O)[C@H](Cc1ccccc1)NC(=O)[C@H](CCC(=O)O)NC(=O)[C@H](C)NC(=O)[C@H](CC(C)C)NC(=O)[C@H](CCCNC(=N)N)NC(=O)[C@H](CCC(N)=O)NC(=O)[C@@H](NC(=O)[C@H](C)NC(=O)[C@@H]1CSSC[C@H](NC(=O)[C@H](CCCCN)NC(=O)CC[C@H](NC(=O)CCCCCCCCCCCCCCCCCCC(=O)O)C(=O)O)C(=O)N[C@@H](CC(N)=O)C(=O)N[C@@H]([C@@H](C)O)C(=O)N[C@@H](C)C(=O)N[C@@H]([C@@H](C)O)C(=O)N1)[C@@H](C)O)C(=O)N[C@@H](CC(C)C)C(=O)N1CCC[C@H]1C(=O)N1CCC[C@H]1C(=O)N[C@H](C(=O)N[C@@H](CC(N)=O)C(=O)N[C@H](C(=O)NCC(=O)N[C@@H](CO)C(=O)N[C@@H](Cc1c[nH]cn1)C(=O)N[C@H](C(=O)N[C@@H](Cc1ccc(O)cc1)C(N)=O)[C@@H](C)O)C(C)C)[C@@H](C)O [Example 55, N-alpha-[(S)-4-Carboxy-4-(19-carboxynonadecanoylamino)butyryl]-[Glu14,His17,His 35]-pramlintide] ({C20 diacid-γGlu}-KCNTATCATQRLAEFLHHSSNNFGPILPPTNVGSHTY-NH2; disulfide 2-7 (inferred); C-terminus assumed) | 88 | 90 | 58 | 40
3 | CC[C@H](C)[C@H](NC(=O)[C@@H]1CCCN1C(=O)CNC(=O)[C@H](Cc1ccccc1)NC(=O)[C@H](CC(N)=O)NC(=O)[C@H](CC(N)=O)NC(=O)[C@H](CO)NC(=O)[C@H](CO)NC(=O)[C@H](Cc1c[nH]cn1)NC(=O)[C@H](Cc1c[nH]cn1)NC(=O)[C@H](CC(C)C)NC(=O)[C@H](Cc1ccccc1)NC(=O)[C@H](CCC(=O)O)NC(=O)[C@H](C)NC(=O)[C@H](CC(C)C)NC(=O)[C@H](CCCNC(=N)N)NC(=O)[C@H](CCC(N)=O)NC(=O)[C@@H](NC(=O)[C@H](C)NC(=O)[C@@H]1CSSC[C@H](NC(=O)[C@H](CCCCN)NC(=O)[C@H](CCC(=O)O)NC(=O)CC[C@H](NC(=O)CCCCCCCCCCCCCCCCCCC(=O)O)C(=O)O)C(=O)N[C@@H](CC(N)=O)C(=O)N[C@@H]([C@@H](C)O)C(=O)N[C@@H](C)C(=O)N[C@@H]([C@@H](C)O)C(=O)N1)[C@@H](C)O)C(=O)N[C@@H](CC(C)C)C(=O)N1CCC[C@H]1C(=O)N1CCC[C@H]1C(=O)N[C@H](C(=O)N[C@@H](CC(N)=O)C(=O)N[C@H](C(=O)NCC(=O)N[C@@H](CO)C(=O)N[C@@H](CC(N)=O)C(=O)N[C@H](C(=O)N[C@@H](Cc1ccc(O)cc1)C(N)=O)[C@@H](C)O)C(C)C)[C@@H](C)O [compound 26] ({C20 diacid-γGlu}-EKCNTATCATQRLAEFLHHSSNNFGPILPPTNVGSNTY-NH2; disulfide 3-8) |  |  | 46 | 39
4 | CC[C@H](C)[C@H](NC(=O)[C@@H]1CCCN1C(=O)CNC(=O)[C@H](Cc1ccccc1)NC(=O)[C@H](CC(N)=O)NC(=O)[C@H](CC(N)=O)NC(=O)[C@H](CO)NC(=O)[C@H](CO)NC(=O)[C@H](CCCNC(=N)N)NC(=O)[C@H](Cc1c[nH]cn1)NC(=O)[C@H](CC(C)C)NC(=O)[C@H](Cc1ccccc1)NC(=O)[C@H](CCC(=O)O)NC(=O)[C@H](C)NC(=O)[C@H](CC(C)C)NC(=O)[C@H](CCCNC(=N)N)NC(=O)[C@H](CCC(N)=O)NC(=O)[C@@H](NC(=O)[C@H](C)NC(=O)[C@@H]1CSSC[C@H](NC(=O)[C@H](Cc2c[nH]cn2)NC(=O)CC[C@H](NC(=O)CCCCCCCCCCCCCCCCCCC(=O)O)C(=O)O)C(=O)N[C@@H](CC(N)=O)C(=O)N[C@@H]([C@@H](C)O)C(=O)N[C@@H](C)C(=O)N[C@@H]([C@@H](C)O)C(=O)N1)[C@@H](C)O)C(=O)N[C@@H](CC(C)C)C(=O)N1CCC[C@H]1C(=O)N1CCC[C@H]1C(=O)N[C@H](C(=O)N[C@@H](CC(N)=O)C(=O)N[C@H](C(=O)NCC(=O)N[C@@H](CO)C(=O)N[C@@H](CC(N)=O)C(=O)N[C@H](C(=O)N[C@@H](Cc1ccc(O)cc1)C(N)=O)[C@@H](C)O)C(C)C)[C@@H](C)O [compound 1] ({C20 diacid-γGlu}-HCNTATCATQRLAEFLHRSSNNFGPILPPTNVGSNTY-NH2; disulfide 2-7) | 93 | 92 | 50 | 45
5 | CC[C@H](C)[C@H](NC(=O)[C@@H]1CCCN1C(=O)CNC(=O)[C@H](Cc1ccccc1)NC(=O)[C@H](CC(N)=O)NC(=O)[C@H](CC(N)=O)NC(=O)[C@H](CO)NC(=O)[C@H](CO)NC(=O)[C@H](Cc1c[nH]cn1)NC(=O)[C@H](CCCNC(=N)N)NC(=O)[C@H](CC(C)C)NC(=O)[C@H](Cc1ccccc1)NC(=O)[C@H](CCC(=O)O)NC(=O)[C@H](C)NC(=O)[C@H](CC(C)C)NC(=O)[C@H](CCCNC(=N)N)NC(=O)[C@H](CCC(N)=O)NC(=O)[C@@H](NC(=O)[C@H](C)NC(=O)[C@@H]1CSSC[C@H](NC(=O)[C@H](CCCCN)NC(=O)CC[C@H](NC(=O)CCCCCCCCCCCCCCCCCCC(=O)O)C(=O)O)C(=O)N[C@@H](CC(N)=O)C(=O)N[C@@H]([C@@H](C)O)C(=O)N[C@@H](C)C(=O)N[C@@H]([C@@H](C)O)C(=O)N1)[C@@H](C)O)C(=O)N[C@@H](CC(C)C)C(=O)N1CCC[C@H]1C(=O)N1CCC[C@H]1C(=O)N[C@H](C(=O)N[C@@H](CC(N)=O)C(=O)N[C@H](C(=O)NCC(=O)N[C@@H](CO)C(=O)N[C@@H](CC(N)=O)C(=O)N[C@H](C(=O)N[C@@H](Cc1ccc(O)cc1)C(N)=O)[C@@H](C)O)C(C)C)[C@@H](C)O [compound 50] ({C20 diacid-γGlu}-KCNTATCATQRLAEFLRHSSNNFGPILPPTNVGSNTY-NH2; disulfide 2-7 (inferred); C-terminus assumed) |  |  | 30 | 8

From patent US9029325B2, “Amylin analogues and pharmaceutical compositions thereof” (Novo Nordisk A/S, priority 2011, dated 2015)
